Assay results from patent US8410153B2, “Naphthalene isoxazoline invertebrate pest control agents” (E.I. du Pont de Nemours and Company, priority 2007, dated 2013).

How the values were obtained:
[1] = test system: western flower thrips (Frankliniella occidentalis); test: Test E: control of western flower thrips on Soleil bean plant, contact and/or systemic; format: in vivo; conditions: held 6 days
Experimental: (§1) Test compounds were formulated using a solution containing 10% acetone, 90% water and 300 ppm X-77™ Spreader Lo-Foam Formula non-ionic surfactant containing alkylarylpolyoxyethylene, free fatty acids, glycols and isopropanol (Loveland Industries, Inc. Greeley, Colo., USA). The formulated compounds were applied in 1 mL of liquid through a SUJ2 atomizer nozzle with ⅛ JJ custom body (Spraying Systems Co. Wheaton, Ill., USA) positioned 1.27 cm (0.5 inches) above the top of each test unit. All experimental compounds in these tests were sprayed at 50 ppm, and the test was replicated three times. After spraying of the formulated test compound, each test unit was allowed to dry for 1 h and then a black, screened cap was placed on top. The test units were held for 6 days in a growth chamber at 25° C. and 70% relative humidity. Plant feeding damage was then visually assessed based on foliage consumed, and a pest mortality rating was also counted and calculated for each test unit.
For evaluating control of the western flower thrips (Frankliniella occidentalis) through contact and/or systemic means, the test unit consisted of a small open container with a 5-7-day-old Soleil Bean plant inside. Test compounds were formulated and sprayed as described for Test A. All experimental compounds in these tests were sprayed at 250 or 50 ppm as noted, and the test was replicated three times. After spraying, the test units were allowed to dry for 1 h, 22-27 adult thrips were added to each unit and then a black, screened cap was placed on top. The test units were held for 6 days at 25° C. and 45-55% relative humidity. A mortality rating was assessed along with a plant damage rating for each test unit.

[2] = test system: diamondback moth (Plutella xylostella); test: Test A: control of diamondback moth on radish plant, foliar spray; format: in vivo; conditions: sprayed at 50 ppm, held 6 days
Description: For evaluating control of diamondback moth (Plutella xylostella) the test unit consisted of a small open container with a 12-14-day-old radish plant inside. This was pre-infested with about 50 neonate larvae that were dispensed into the test unit via corncob grits using a bazooka inoculator. The larvae moved onto the test plant after being dispensed into the test unit.
as §1

Row | SMILES | levels of control efficacy (20% or less feeding damage or 80% or more mortality) ([1]; sprayed at 250 ppm) | levels of control efficacy (20% or less feeding damage or 80% or more mortality) [2] | levels of control efficacy (20% or less feeding damage or 80% or more mortality) ([1]; sprayed at 50 ppm)
1 | CC(NC(=O)c1ccc(C2=NOC(c3cc(Cl)cc(C(F)(F)F)c3)(C(F)(F)F)C2)c2ccccc12)C(=O)NCC(C)(C)C (mixture of isomers) [Compound 131] | very good to excellent | very good to excellent | 
2 | CC(C)C(NC(=O)c1ccc(C2=NOC(c3cc(Cl)cc(Cl)c3)(C(F)(F)F)C2)c2ccccc12)C(=O)NCC(F)(F)F (mixture of isomers) [Compound 2] |  | very good to excellent | 
3 | CC(C)NC(=O)C(C)NC(=O)c1ccc(C2=NOC(c3cc(Cl)cc(C(F)(F)F)c3)(C(F)(F)F)C2)c2ccccc12 (mixture of isomers) [Compound 107] | very good to excellent | very good to excellent | very good to excellent
4 | CC(C)CNC(=O)C(C)NC(=O)c1ccc(C2=NOC(c3cc(Cl)cc(C(F)(F)F)c3)(C(F)(F)F)C2)c2ccccc12 (mixture of isomers) [Compound 111] | very good to excellent | very good to excellent | very good to excellent
5 | O=C(CCNC(=O)c1ccc(C2=NOC(c3cc(Cl)cc(Cl)c3)(C(F)(F)F)C2)c2ccccc12)NCC(F)(F)F (stereo not shown) [Compound 9] |  | very good to excellent | 
6 | CC(C)(CO)NC(=O)c1ccc(C2=NOC(c3cc(Cl)cc(Cl)c3)(C(F)(F)F)C2)c2ccccc12 (racemic) [Compound 32] | very good to excellent | very good to excellent | very good to excellent
7 | CSCCNC(=O)c1ccc(C2=NOC(c3cccc(F)c3)(C(F)(F)F)C2)c2ccccc12 (stereo not shown) [Compound 78] |  | very good to excellent | 
8 | CC(NC(=O)c1ccc(C2=NOC(c3cc(Cl)cc(C(F)(F)F)c3)(C(F)(F)F)C2)c2ccccc12)C(=O)NCC(C)(C)C (mixture of isomers) [Compound 112] | very good to excellent | very good to excellent | 
9 | CNC(=O)C(C)NC(=O)c1ccc(C2=NOC(c3cc(C(F)(F)F)cc(C(F)(F)F)c3)(C(F)(F)F)C2)c2ccccc12 (mixture of isomers) [Compound 95] |  | very good to excellent | 
10 | O=C(CNC(=O)c1ccc(C2=NOC(c3cc(F)cc(F)c3)(C(F)(F)F)C2)c2ccccc12)NCC(F)(F)F (stereo not shown) [Compound 73] | very good to excellent | very good to excellent | 
11 | CCNC(=O)C(C)NC(=O)c1ccc(C2=NOC(c3cc(Cl)cc(C(F)(F)F)c3)(C(F)(F)F)C2)c2ccccc12 (mixture of isomers) [Compound 110] | very good to excellent | very good to excellent | very good to excellent
12 | CSCCNC(=O)c1ccc(C2=NOC(c3cc(F)cc(F)c3)(C(F)(F)F)C2)c2ccccc12 (stereo not shown) [Compound 77] | very good to excellent | very good to excellent | 
13 | CC(C)(C)SCCNC(=O)c1ccc(C2=NOC(c3cccc(C(F)(F)F)c3)(C(F)(F)F)C2)c2ccccc12 (racemic) [Compound 57] |  | very good to excellent | 
14 | O=C(NCCCO)c1ccc(C2=NOC(c3cccc(C(F)(F)F)c3)(C(F)(F)F)C2)c2ccccc12 (racemic) [Compound 42] | very good to excellent | very good to excellent | very good to excellent
15 | CC(C)(CO)CNC(=O)c1ccc(C2=NOC(c3cccc(C(F)(F)F)c3)(C(F)(F)F)C2)c2ccccc12 (stereo not shown) [Compound 61] |  | very good to excellent | 
16 | CS(=O)(=O)CCNC(=O)c1ccc(C2=NOC(c3cc(F)cc(F)c3)(C(F)(F)F)C2)c2ccccc12 (stereo not shown) [Compound 80] | very good to excellent | very good to excellent | 
17 | CC(NC(=O)CNC(=O)c1ccc(C2=NOC(c3cc(C(F)(F)F)cc(C(F)(F)F)c3)(C(F)(F)F)C2)c2ccccc12)C(F)(F)F (mixture of isomers) [Compound 104] |  | very good to excellent | 
18 | CCCNC(=O)C(C)NC(=O)c1ccc(C2=NOC(c3cc(C(F)(F)F)cc(C(F)(F)F)c3)(C(F)(F)F)C2)c2ccccc12 (mixture of isomers) [Compound 84] | very good to excellent | very good to excellent | very good to excellent
19 | CC(C)NC(=O)CNC(=O)c1ccc(C2=NOC(c3cc(F)cc(F)c3)(C(F)(F)F)C2)c2ccccc12 (stereo not shown) [Compound 75] |  | very good to excellent | 
20 | CC(NC(=O)c1ccc(C2=NOC(c3cc(Cl)cc(C(F)(F)F)c3)(C(F)(F)F)C2)c2ccccc12)C(=O)NCC(F)(F)F (mixture of isomers) [Compound 106] | very good to excellent | very good to excellent | very good to excellent
21 | CC(NC(=O)c1ccc(C2=NOC(c3cc(C(F)(F)F)cc(C(F)(F)F)c3)(C(F)(F)F)C2)c2ccccc12)C(=O)NCC(F)(F)F (mixture of isomers) [Compound 94] |  | very good to excellent | 
22 | CNC(=O)C(C)NC(=O)c1ccc(C2=NOC(c3cc(Cl)cc(C(F)(F)F)c3)(C(F)(F)F)C2)c2ccccc12 (mixture of isomers) [Compound 109] | very good to excellent | very good to excellent | very good to excellent
23 | CC(NC(=O)c1ccc(C2=NOC(c3cc(C(F)(F)F)cc(C(F)(F)F)c3)(C(F)(F)F)C2)c2ccccc12)C(=O)NCC(C)(C)C (mixture of isomers) [Compound 97] |  |  | very good to excellent
24 | O=C(CNC(=O)c1ccc(C2=NOC(c3cccc(F)c3)(C(F)(F)F)C2)c2ccccc12)NCC(F)(F)F (stereo not shown) [Compound 74] |  | very good to excellent | 
25 | CC(C)NC(=O)CNC(=O)c1ccc(C2=NOC(c3cccc(F)c3)(C(F)(F)F)C2)c2ccccc12 (stereo not shown) [Compound 76] |  | very good to excellent | 
